Measured values from US20250009737A1, “COMPOUNDS AND METHODS FOR THE TARGETED DEGRADATION OF ANDROGEN RECEPTOR” (Arvinas Operations, Inc., priority 2023, published 2025).
Like-named read-outs stand apart in the source and are kept apart here.

Columns and labels:
Assay type in all cases: in vitro ADME
CYP2B6 mRNA = CYP2B6 mRNA induction in cryopreserved human hepatocytes; conditions: 0.03-30 μM; for CYP2B6 mRNA Fold induction: human hepatocytes, 48 hours
Protocol: (§1) The induction potential of Compound A on CYP enzymes was assessed in cryopreserved human hepatocytes from three donors. Following treatment for with Compound A at concentrations of 0.03-30 μM for 48 hours, mRNA levels for CYP1A2, 2B6, 2C8, 2C9, 2C19, and 3A4 were determined by semiquantitative real-time polymerase chain reaction (PCR). Test article concentrations during 24-hour incubation were determined. The potential of Compound A to cause direct and time-dependent inhibition (TDI) of the activities of CYP1A2, 2B6, 2C8, 2C9, 2C19, 2D6, and 3A4 was evaluated in pooled human liver microsomes (HLM) at 0.2-15 μM. Probe substrate concentrations around Km were used for direction inhibition and initial TDI assays. For TDI assay, Compound A was pre-incubated with pooled HLM with and without NADPH for 30 minutes prior to incubation with a single concentration of probe substrate.

CYP2C19 = molecular target: T1, CYP2C19 (Homo sapiens, UniProt P33261); assay: Direct and time-dependent CYP2C19 inhibition in pooled human liver microsomes; conditions: pooled HLM, substrate S-Mephenytoin 20 μM
T1 construct: evaluated in pooled human liver microsomes (HLM); from tissue; host or cells: pooled human liver microsomes
Protocol: as §1

CYP2C9 = molecular target: T2, CYP2C9 (Homo sapiens, UniProt P11712); assay: Direct and time-dependent CYP2C9 inhibition in pooled human liver microsomes; conditions: pooled HLM, substrate Diclofenac 5 μM
T2 construct: evaluated in pooled human liver microsomes (HLM); from tissue; host or cells: pooled human liver microsomes
Protocol: as §1

OAT1 = molecular target: T3, OAT1 (Homo sapiens, UniProt Q4U2R8); assay: OAT1 uptake transporter inhibition in MDCKII or HEK293 cells; conditions: substrate Estrone-3-sulfate (E3S) (5 μM)
T3 construct: expressed in transfected cells; host or cells: MDCKII or HEK293
Protocol: (§2) In addition, the inhibition potential against efflux transporters (P-glycoprotein (Pgp) and breast cancer resistance protein (BCRP)) and uptake transporters (MATE1, MATE2-K, OATP1B1, OATP1B3, OAT1, OAT3, and OCT2) was assessed using single transporter over-expressed cell monolayers (MDCK II or HEK293) or inside-out vesicles.
(§3) The potential of Compound A to inhibit Pgp or BCRP was tested for bidirectional transport of the probe substrates in Pgp or BCRP-expressed MDCKII and control monolayers at Compound A concentrations of 0.07-5 μM. Pgp and BCR inhibition were tested in inside-out membrane vesicles prepared from HEK293 overexpressing human Pgp and BCR at concentrations of 0.01-9 μM Compound A in the presence of 4 mM MgATP or MgAMP.

MATE1 = molecular target: T4, MATE1 (Homo sapiens, UniProt Q96FL8); assay: MATE1 uptake transporter inhibition in MDCKII or HEK293 cells
T4 construct: expressed in transfected cells; host or cells: MDCKII or HEK293
T4 sequence (Q96FL8 1-570): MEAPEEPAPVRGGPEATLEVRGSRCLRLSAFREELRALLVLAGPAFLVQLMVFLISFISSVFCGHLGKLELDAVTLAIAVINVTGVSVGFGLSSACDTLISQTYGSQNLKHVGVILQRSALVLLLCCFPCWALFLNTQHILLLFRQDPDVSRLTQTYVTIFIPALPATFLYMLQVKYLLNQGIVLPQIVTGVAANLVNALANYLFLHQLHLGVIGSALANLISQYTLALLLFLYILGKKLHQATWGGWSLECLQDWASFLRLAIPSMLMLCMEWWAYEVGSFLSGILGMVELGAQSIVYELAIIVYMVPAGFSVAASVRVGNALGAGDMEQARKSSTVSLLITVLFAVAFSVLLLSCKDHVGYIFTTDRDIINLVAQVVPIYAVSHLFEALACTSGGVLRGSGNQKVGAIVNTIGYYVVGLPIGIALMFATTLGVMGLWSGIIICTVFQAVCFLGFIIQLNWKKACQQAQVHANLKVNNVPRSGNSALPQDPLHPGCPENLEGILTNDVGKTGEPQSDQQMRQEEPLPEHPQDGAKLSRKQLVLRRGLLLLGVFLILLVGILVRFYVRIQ
Protocol: as §2, §3

MATE2-K = molecular target: T5, MATE2-K (Homo sapiens, UniProt Q86VL8); assay: MATE2-K uptake transporter inhibition in MDCKII or HEK293 cells; conditions: substrate Metformin (10 μM)
T5 construct: expressed in transfected cells; host or cells: MDCKII or HEK293
Protocol: as §2, §3

major recombinant CYPs = assay: Incubation with recombinant human CYP enzymes; conditions: up to 25 min
Protocol: Metabolite profiling was conducted in incubations of Compound A (2 and 10 μM) with HLM (up to 60 min), human hepatocyte suspension (up to 240 min) and human plasma (up to 360 min). In addition, Compound A (2 μM) was incubated with recombinant human CYP enzymes CYP1A2, CYP2A6, CYP2B6, CYP2C8, CYP2C9, CYP2C19, CYP2D6, CYP2E1, CYP3A4 and CYP3A5.
The DDI potential of Compound A as a victim via CYP mediated pathways was examined in HLM, human hepatocyte suspensions, and human recombinant CYP enzymes.

CYP1A2 mRNA = CYP1A2 mRNA induction in cryopreserved human hepatocytes; conditions: 0.03-30 μM; for CYP1A2 mRNA Fold induction: human hepatocytes, 48 hours
Protocol: as §1

[1] = all three donors of human hepatocytes
[2] = read-out: IC50, 30 min Pre-incubation
[3] = read-out: IC50, No Pre-incubation

T1 sequence (P33261 whole entry): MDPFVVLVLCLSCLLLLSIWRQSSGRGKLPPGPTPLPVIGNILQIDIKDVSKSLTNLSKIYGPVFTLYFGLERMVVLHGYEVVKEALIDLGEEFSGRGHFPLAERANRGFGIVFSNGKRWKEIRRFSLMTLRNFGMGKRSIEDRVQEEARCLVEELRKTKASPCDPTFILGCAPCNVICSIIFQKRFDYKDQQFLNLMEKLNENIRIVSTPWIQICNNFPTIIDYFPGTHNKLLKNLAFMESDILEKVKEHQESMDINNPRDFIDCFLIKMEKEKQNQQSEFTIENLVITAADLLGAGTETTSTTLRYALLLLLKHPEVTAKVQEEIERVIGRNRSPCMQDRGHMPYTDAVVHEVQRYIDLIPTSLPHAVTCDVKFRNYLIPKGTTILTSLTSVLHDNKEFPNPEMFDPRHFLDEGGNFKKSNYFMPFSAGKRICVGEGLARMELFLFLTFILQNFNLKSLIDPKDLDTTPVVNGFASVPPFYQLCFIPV
T2 sequence (P11712 whole entry): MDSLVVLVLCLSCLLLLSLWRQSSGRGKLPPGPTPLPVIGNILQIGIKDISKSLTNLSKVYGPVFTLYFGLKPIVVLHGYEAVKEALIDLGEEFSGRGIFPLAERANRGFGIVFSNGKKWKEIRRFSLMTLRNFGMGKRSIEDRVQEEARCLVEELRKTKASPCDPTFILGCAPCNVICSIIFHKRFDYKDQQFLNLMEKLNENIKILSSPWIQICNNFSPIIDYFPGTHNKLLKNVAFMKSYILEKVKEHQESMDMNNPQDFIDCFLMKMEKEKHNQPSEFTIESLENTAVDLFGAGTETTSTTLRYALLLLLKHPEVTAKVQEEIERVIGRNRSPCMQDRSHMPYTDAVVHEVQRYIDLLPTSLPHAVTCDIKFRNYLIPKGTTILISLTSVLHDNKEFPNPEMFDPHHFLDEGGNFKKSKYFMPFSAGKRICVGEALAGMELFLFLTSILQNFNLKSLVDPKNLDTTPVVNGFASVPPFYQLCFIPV
T5 sequence (Q86VL8 1-566 isoform Q86VL8-3): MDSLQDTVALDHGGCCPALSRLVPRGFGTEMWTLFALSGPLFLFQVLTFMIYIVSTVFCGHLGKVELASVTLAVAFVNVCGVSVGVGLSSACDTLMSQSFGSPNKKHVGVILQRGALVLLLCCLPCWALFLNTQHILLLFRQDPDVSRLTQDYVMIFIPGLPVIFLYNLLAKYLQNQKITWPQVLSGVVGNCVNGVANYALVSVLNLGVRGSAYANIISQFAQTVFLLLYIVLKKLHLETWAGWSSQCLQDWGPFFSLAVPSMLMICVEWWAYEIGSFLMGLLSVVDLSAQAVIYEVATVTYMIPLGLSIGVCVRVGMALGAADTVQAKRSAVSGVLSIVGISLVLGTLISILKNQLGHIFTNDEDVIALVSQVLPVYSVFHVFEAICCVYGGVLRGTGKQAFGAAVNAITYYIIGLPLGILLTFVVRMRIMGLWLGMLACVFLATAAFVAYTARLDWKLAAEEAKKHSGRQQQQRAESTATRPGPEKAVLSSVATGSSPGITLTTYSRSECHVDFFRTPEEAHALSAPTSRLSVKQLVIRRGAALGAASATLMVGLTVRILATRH
T3 sequence (Q4U2R8 whole entry): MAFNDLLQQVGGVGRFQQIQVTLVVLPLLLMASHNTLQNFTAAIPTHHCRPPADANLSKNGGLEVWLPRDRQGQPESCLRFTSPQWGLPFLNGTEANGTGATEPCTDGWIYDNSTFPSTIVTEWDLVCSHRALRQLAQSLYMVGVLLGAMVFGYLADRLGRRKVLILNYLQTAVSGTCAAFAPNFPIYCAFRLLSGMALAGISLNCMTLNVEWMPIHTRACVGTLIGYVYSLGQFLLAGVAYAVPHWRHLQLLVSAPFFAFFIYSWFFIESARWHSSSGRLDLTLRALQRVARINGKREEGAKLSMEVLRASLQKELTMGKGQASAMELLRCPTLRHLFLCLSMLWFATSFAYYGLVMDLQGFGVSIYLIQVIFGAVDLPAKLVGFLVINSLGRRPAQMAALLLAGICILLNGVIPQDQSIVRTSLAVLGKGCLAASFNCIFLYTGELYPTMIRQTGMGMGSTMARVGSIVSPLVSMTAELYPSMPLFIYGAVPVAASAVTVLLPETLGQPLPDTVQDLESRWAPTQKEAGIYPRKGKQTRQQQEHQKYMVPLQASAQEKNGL

Question: What does the source list for COc1cc(O[C@H]2C(C)(C)[C@H](NC(=O)c3ccc(N4CCC(CN5CCN(c6ccc(C(=O)N[C@H]7CCC(=O)NC7=O)c(F)c6)CC5)CC4)cc3)C2(C)C)ccc1C#N [Compound A, 4-(4-((1-(4-(((1R,3R)-3-(4-cyano-3-methoxyphenoxy)-2,2,4,4-tetramethylcyclobutyl)carbamoyl)phenyl)piperidin-4-yl)methyl)piperazin-1-yl)-N—((S)-2,6-dioxopiperidin-3-yl)-2-fluorobenzamide]?
Answer: CYP2B6 mRNA Fold induction (CYP2B6 mRNA; Donor 1): <2 Fold; CYP2B6 mRNA Fold induction (CYP2B6 mRNA; Donor 2): <2 Fold; CYP2B6 mRNA Fold induction (CYP2B6 mRNA; Donor 3): <2 Fold; Induction of CYP2B6 mRNA (CYP2B6 mRNA; [1]): did not induce; IC50 (CYP2C19; [2]): > 15 µM; IC50 (CYP2C19; [3]): > 15 µM; IC50 (CYP2C9; [2]): > 15 µM; IC50 (CYP2C9; [3]): > 15 µM; IC50 (OAT1): > 3.75 µM; IC50 (MATE1; MATE1, substrate Metformin (10 μM)): 3.05 µM; EC50 (MATE1; MATE1 inhibition): 3.05 µM; inhibition at 3.75 µM (MATE1; MDCKII or HEK293 cells stably expressing MATE1, probe Metformin (10 μM), at a concentration of 3.75 μM): 52%; IC50 (MATE2-K): > 3.75 µM; Stability in major recombinant CYPs (major recombinant CYPs): relatively stable; CYP1A2 mRNA Fold induction (CYP1A2 mRNA; Donor 1): <2 Fold; CYP1A2 mRNA Fold induction (CYP1A2 mRNA; Donor 2): <2 Fold; CYP1A2 mRNA Fold induction (CYP1A2 mRNA; Donor 3): <2 Fold; Induction of CYP1A2 mRNA (CYP1A2 mRNA; [1]): did not induce
